The results in this text go back to paper PMC7083565, “In vitro metabolism, reaction phenotyping, enzyme kinetics, CYP inhibition and induction potential of ataluren” (Pharmacology Research & Perspectives, 2020).

Holding throughout (assay type): in vitro ADME
Data set [1] in a line: Glucuronidation in pooled human lung microsomes. Particulars: lung microsomes 1 mg protein/mL, 10 μmol/L. The protocol: (§1) Ataluren at 10 μmol/L, was incubated (n = 1) with pooled human intestinal, lung, and kidney microsomes (1 mg protein/mL, preactivated with alamethicin) to evaluate if ataluren‐O‐1β‐acyl glucuronide will be formed in these extrahepatic tissues. Incubation mixtures and procedures were essentially the same as the above. The supernatant fractions were analyzed by LC‐MS/MS to quantify the formation of ataluren‐O‐1β‐acyl glucuronide and the loss of ataluren. Detailed LC‐MS/MS conditions are summarized in LC‐MS/MS Analysis section. […] The ataluren acyl glucuronide formation rate after 60 minutes incubation was calculated using the amount of metabolite formed (pmol) divided by the protein amount in the incubation sample ([…]) and the incubation time (60 minutes).
(§2) Quantification of ataluren loss and ataluren‐O‐1β‐acyl glucuronide formation was carried out with an LC‐MS/MS system, which consisted of two Shimadzu LC‐10ADvp pumps, a SPD10‐AVP UV/Vis detector, a Shimadzu SILHTA autosampler, a Shimadzu DGU‐14A degasser, and a Sciex API 4000 QTRAP mass spectrometer equipped with a Turbo Ionspray ionization source that operated in positive ionization mode. […] Ion transitions monitored were at m/z 285 → m/z 123 for ataluren, m/z 461 → m/z 285 for ataluren acyl glucuronide, and m/z 289 → m/z 127 for ataluren‐D4 (internal standard), respectively.

A short description of data set [2]: Glucuronidation in pooled human intestinal microsomes. Particulars: intestinal microsomes 1 mg protein/mL, 10 μmol/L, 60 minutes, n = 1. Here is the method:
as §1, §2

The nature of data set [3]: Metabolism of [14C]-ataluren in pooled human liver microsomes with cofactors. The protocol:
[^14C]‐Ataluren at 1, 10, and 100 μmol/L was incubated (n = 3) with pooled HLM (1 mg protein/mL) at 37 ± 1°C in 0.2 mL incubation mixtures (final volume) containing potassium phosphate buffer (50 mmol/L, pH 7.4), MgCl2 (3 mmol/L), and EDTA (1 mmol/L) with and without cofactors, NADPH‐generating system (1 mmol/L NADP, 5 mmol/L glucose‐6‐phosphate, and 1 unit/mL glucose‐6‐phosphate dehydrogenase), and uridine diphosphate glucuronic acid (UDPGA, 8 mmol/L). [^14C]‐Ataluren was added in DMSO (final percent of 0.1% v/v). Reactions were started by the addition of the cofactors and terminated by the addition of stop reagent (0.2 mL of 2% v/v formic acid/acetonitrile) at 0, 60, and 120 minutes. Precipitated protein was removed by centrifugation (920 g for 10 minutes at 10°C). The supernatant fractions were analyzed by LC/RAM/MS to determine percent loss of substrate in incubations. Detailed LC/MS conditions are summarized in LC‐MS/MS Analysis section. After chromatographic separation, the detected radioactive peaks were integrated, and their identity was confirmed using mass spectrometry analysis. [^14C]‐ataluren remaining at specific timepoint after incubation was compared with the amount of [^14C]‐ataluren at 0 minutes incubation sample in the same matrix (eg, with or without cofactors etc) to calculate the percentage of ataluren remaining. The percentage of [^14C]‐ataluren acyl glucuronide formation at specific timepoint after incubation was calculated using the amount of metabolite formed over the total radioactivity in each sample.
[^14C]‐Ataluren and metabolites were monitored by LC/RAM/MS system, which consisted of two Shimadzu LC‐10ATvp pumps (Shimadzu Scientific Instruments, Columbia, MD, USA), a Shimadzu SIL‐5000 autosampler, an IN/US Systems β‐RAM radiometric detector (LabLogic), and a Sciex API 4000 QTRAP triple quadrupole mass spectrometer (Sciex) equipped with a Turbo Ionspray ionization source operated in negative ionization mode. The Ionspray voltage was set at 4.5 kV with the source temperature at 450 °C. MS/MS was carried out with nitrogen as the collision gas. The column used was a Phenomenex Luna C8, 3 μm, 150 × 3.0 mm column (Phenomenex, Torrance, CA, USA). Mobile phase A consisted of 0.2% formic acid in water and mobile phase B consisted of 0.2% formic acid in acetonitrile. The flow rate was 0.50 mL/min with gradient program as follows: hold isocratic at 5% B for 2 minutes; linear gradient from 5% B to 60% B in 20 minutes; linear gradient from 60% B to 95% B in 5 minutes and hold isocratic at 95% B for 2 minutes; linear gradient from 95% B to 5% B in 0.5 minutes and hold isocratic at […] for 3.5 minutes.
A general note: Liver microsomes are vesicles of endoplasmic reticulum, rich in cytochrome P450 enzymes.

Data set [4] in a line: Free fraction in human liver microsomes (internal data). Particulars: between 1 and 200 µmol/L, 0.1 mg/mL protein concentration.

The structures appear in SMILES notation.

For `O=C(O)c1cccc(-c2noc(-c3ccccc3F)n2)c1` [ataluren, Ataluren], in data set [1], the “Glucuronidation of ataluren observed” value was “not in lung microsomes”. For the same compound, the ataluren loss is reported as 34.4% in data set [2]; “no ataluren loss was observed” in data set [3] (NADPH fortified HLM, 1, 10 and 100 µmol/L, up to 120 minutes); 32% in data set [3] (UDPGA fortified HLM, 1 µmol/L, 120 minutes, n = 3); 31% in data set [3] (UDPGA fortified HLM, 10 µmol/L, 120 minutes, n = 3); 18% in data set [3] (UDPGA fortified HLM, 100 µmol/L, 120 minutes, n = 3). The “Free fractions of ataluren in human liver microsomes” value in data set [4] was “close to unity”.
